This is an account of results in patent US8211929B2, “Pyrimidine derivatives as kinase modulators and method of use” (Exelixis, Inc., priority 2004, dated 2012).

The target of assay [1] is T1, IGF 3P (Homo sapiens, UniProt P08069).
T1 construct: human IGF1R kinase domain residues M954-C1367; made in house; host or cells: baculovirus expression (insect cells)
The assay can be described thus: IGF1R kinase assay (LCCA), IGF 3P. The format is biochemical. How it is done: (§1) Kinase activity and compound inhibition are investigated using one or more of the three assay formats described below. The ATP concentrations for each assay are selected to be close to the Michaelis-Menten constant (KM) for each individual kinase. Dose-response experiments are performed at 10 different inhibitor concentrations in a 384-well plate format. […] Y=Min+(Max−Min)/(1+(X/IC50)^H) Equation (2)
(§2) IGF1R kinase biochemical activity was assessed using a Luciferase-Coupled Chemiluminescent Kinase assay (LCCA) format. Kinase activity was measured as the percent ATP remaining following the kinase reaction. Remaining ATP was detected by luciferase-luciferin-coupled chemiluminescence. Specifically, the reaction was initiated by mixing test compounds, 3 μM ATP, 4 μM poly EY peptide and 4 nM IGF1R (baculovirus expressed human IGF1R kinase domain residues M954-C1367) in a 20 uL assay buffer (20 mM Tris-HCL pH7.5, 10 mM MgCl2, 0.02% Triton X-100, 1 mM DTT, 2 mM MnCl2). The mixture is incubated at ambient temperature for 2 hours after which 20 uL luciferase-luciferin mix is added and the chemiluminescent signal read using a Wallac Victor^2 reader.

Assay [2] deals with T2, (Homo sapiens, UniProt P08069).
T2 construct: human IGF1R kinase domain residues M954-C1367; made in house; host or cells: baculovirus expression (insect cells)
T2 sequence (P08069 954-1367): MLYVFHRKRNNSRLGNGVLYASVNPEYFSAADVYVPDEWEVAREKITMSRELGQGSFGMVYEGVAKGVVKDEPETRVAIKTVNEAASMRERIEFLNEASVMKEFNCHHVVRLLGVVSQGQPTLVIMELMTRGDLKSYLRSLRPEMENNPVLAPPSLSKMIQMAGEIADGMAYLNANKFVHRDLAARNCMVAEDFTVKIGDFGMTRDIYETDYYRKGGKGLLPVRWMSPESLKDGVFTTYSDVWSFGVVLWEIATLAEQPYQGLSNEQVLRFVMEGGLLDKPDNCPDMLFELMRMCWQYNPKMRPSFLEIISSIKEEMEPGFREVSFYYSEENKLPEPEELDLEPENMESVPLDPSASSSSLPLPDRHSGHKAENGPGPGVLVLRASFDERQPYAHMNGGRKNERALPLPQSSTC
As to the kind of experiment: IGF1R kinase assay (LCCA), IGF 0P. The assay is classed as biochemical. The procedure: as §1, §2

SMILES strings stand for the structures. Like-named read-outs stand apart in the source and are kept apart here.

T1 sequence (P08069 954-1367): as above

`Clc1ccc(-c2ccc(CNc3ncc(Br)c(Nc4cc(C5CC5)n[nH]4)n3)s2)cc1` [Example 324]: the half-inhibitory concentration (IC50) in assay [1] (IGF1R kinase LCCA assay) and in assay [2] (IGF1R kinase LCCA assay) was greater than 5000 nM in each case.
Take `Brc1cnc(Nc2ccncc2)nc1Nc1cc(C2CC2)[nH]n1` [Example 316]: the IC50 in assay [1] (IGF1R kinase LCCA assay) and in assay [2] (IGF1R kinase LCCA assay) was greater than 5000 nM in each case.
Take `Brc1cc(CNc2ncc(Br)c(Nc3cc(C4CC4)[nH]n3)n2)on1` [Example 72]: the IC50 in assay [1] (IGF1R kinase LCCA assay) was in the range of 50 to 500 nM; in assay [2] (IGF1R kinase LCCA assay), 500 to 5000 nM.
As for `CC(C)c1cc(CNc2nc(Nc3cc(C4CC4)[nH]n3)cc(N3C[C@H]4C[C@@H]3CN4Cc3ccccc3)n2)on1` [Example 636, N^4-(5-cyclopropyl-1H-pyrazol-3-yl)-N^2-{[3-(1-methylethyl)isoxazol-5-yl]methyl}-6-[(1R,4R)-5-(phenylmethyl)-2,5-diazabicyclo[2.2.1]hept-2-yl]pyrimidine-2,4-diamine], the IC50 is less than 50 nM in assay [1] (IGF 3P) and 50 to 500 nM in assay [2] (IGF 0P).
Regarding `CN1CCN(c2nc(NCc3cc(-c4ccccc4)no3)nc(Nc3cc(C4CC4)n[nH]3)c2Cl)CC1` [Example 625, 5-chloro-N^4-(3-cyclopropyl-1H-pyrazol-5-yl)-6-(4-methylpiperazin-1-yl)-N^2-[(3-phenylisoxazol-5-yl)methyl]pyrimidine-2,4-diamine], the IC50 in assay [1] and in assay [2] was 50 to 500 nM each time.
Turning to `Clc1cc(Nc2ncc(Br)c(Nc3cc(C4CC4)n[nH]3)n2)cc(Cl)c1Cl` [Example 325], the IC50 in assay [1] (IGF1R kinase LCCA assay) and in assay [2] (IGF1R kinase LCCA assay) was greater than 5000 nM each time.
As for `Cc1cc(Nc2cc(C3CC3)n[nH]2)nc(Nc2ccc3c(c2)CNCC3)n1` [Example 545], the IC50 in assay [1] (IGF1R kinase LCCA assay) lay within 50 to 500 nM; in assay [2] (IGF1R kinase LCCA assay), 500 to 5000 nM.
Regarding `Brc1cnc(NCC2CCNCC2)nc1Nc1cc(C2CC2)n[nH]1` [Example 198], the figures for the IC50 in assay [1] (IGF1R kinase LCCA assay) and in assay [2] (IGF1R kinase LCCA assay) were 500 to 5000 nM and greater than 5000 nM, respectively.
Turning to `CC(C)c1cc(Nc2cc(N3CCN(C)CC3)nc(NCc3cc(-c4ccc(F)cc4)no3)n2)[nH]n1` [Example 608, N^2-{[3-(4-fluorophenyl)isoxazol-5-yl]methyl}-N^4-[3-(1-methylethyl)-1H-pyrazol-5-yl]-6-(4-methylpiperazin-1-yl)pyrimidine-2,4-diamine], the half-inhibitory concentration (IC50) in assay [1] was less than 50 nM; in assay [2] it was 50 to 500 nM.
Consider `Nc1ncnc2c1c(-c1ccc(NC(=O)C3(C(=O)Nc4ccc(F)cc4)CC3)cc1)cn2CC1CC2CNCC2C1` (centres unmarked) [Example 347], for which the IC50 in assay [1] (IGF1R kinase LCCA assay) and in assay [2] (IGF1R kinase LCCA assay) was greater than 5000 nM throughout.
For `CC(=O)NCC#CCn1cc(-c2cccc(OCc3ccccc3)c2)c2c(N)ncnc21` [Example 355], the concentration for half-maximal inhibition (IC50) in assay [1] (IGF1R kinase LCCA assay) and in assay [2] (IGF1R kinase LCCA assay) was greater than 5000 nM each time.
Turning to `Nc1ccc(Nc2nc(Nc3cc(C4CC4)n[nH]3)ncc2Br)cc1` [Example 327], the IC50 in assay [1] (IGF1R kinase LCCA assay) and in assay [2] (IGF1R kinase LCCA assay) was greater than 5000 nM each time.
`CCN(CC)CCCNC(=O)c1ccc(Nc2ncc(C)c(Nc3cc(C4CC4)n[nH]3)n2)cc1` [Example 181]: the IC50 in assay [1] (IGF1R kinase LCCA assay) and in assay [2] (IGF1R kinase LCCA assay) was 500 to 5000 nM in each case.
Take `Fc1ccc(-c2cc(CNc3nc(Nc4cc(C5CC5)n[nH]4)cc(OCCN4CCOCC4)n3)on2)cc1` [Example 606, N^4-(3-cyclopropyl-1H-pyrazol-5-yl)-N^2-{[3-(4-fluorophenyl)isoxazol-5-yl]methyl}-6-[(2-morpholin-4-ylethyl)oxy]pyrimidine-2,4-diamine]: the IC50 in assay [1] was less than 50 nM; in assay [2] it was 50 to 500 nM.
For `CCN(CC)CCNC(=O)c1ccc2cc(Nc3nc(C)cc(Nc4cc(C5CC5)n[nH]4)n3)ccc2c1` [Example 59], the IC50 in assay [1] (IGF1R kinase LCCA assay) was less than 50 nM; in assay [2] (IGF1R kinase LCCA assay), 50 to 500 nM.
The matching figures for `CC(C)(C)OC(=O)N1CC[C@@H](NC(=O)c2ccc(Nc3ncc(Br)c(Nc4cc(C5CC5)n[nH]4)n3)cc2)C1` [Example 145]: 50 to 500 nM and 500 to 5000 nM.
The like results for `Cc1cnc(Nc2ccc(C(=O)NC3CCN(C)CC3)cc2)nc1Nc1cc(C2CC2)n[nH]1` [Example 157] were, in that order, 500 to 5000 nM and 500 to 5000 nM.
The matching figures for `Cc1cc(Nc2cc(C3CC3)n[nH]2)nc(Nc2ccc3c(c2)CC(N)C3)n1` (centres unmarked) [Example 546]: 50 to 500 nM and 500 to 5000 nM.
Turning to `CN1CCN(C(=O)c2cc(Nc3cc(C4CC4)[nH]n3)nc(NCc3cc(-c4ccccc4)no3)n2)CC1` [Example 522], the IC50 was less than 50 nM in assay [1] (IGF1R kinase LCCA assay) and 50 to 500 nM in assay [2] (IGF1R kinase LCCA assay).
The matching figures for `FC(F)(F)c1cccc(CNc2ncc(Br)c(Nc3cc(C4CC4)n[nH]3)n2)c1` [Example 263]: greater than 5000 nM and 500 to 5000 nM.
With `CN1CCN(c2cc(Nc3cc(C4CC4)[nH]n3)nc(NCc3cc(-c4ccccn4)no3)n2)CC1` [Example 611, N^4-(5-cyclopropyl-1H-pyrazol-3-yl)-6-(4-methylpiperazin-1-yl)-N^2-[(3-pyridin-2-ylisoxazol-5-yl)methyl]pyrimidine-2,4-diamine], the half-inhibitory concentration (IC50) was less than 50 nM in assay [1] and 50 to 500 nM in assay [2].
On to `CN(C)CCCNc1ncc(Br)c(Nc2cc(C3CC3)n[nH]2)n1` [Example 254], for which the concentration for half-maximal inhibition (IC50) was 500 to 5000 nM in assay [1] (IGF1R kinase LCCA assay) and greater than 5000 nM in assay [2] (IGF1R kinase LCCA assay).

What is called IC50 is the midpoint of a concentration-inhibition curve. A higher IC50 goes with weaker potency in that assay.
